Experiment [1] addresses T1, xanthine oxidase from bovine milk (Bos taurus, UniProt P80457).
T1 construct: xanthine oxidase from bovine milk (0.09 units/mg solid); purchased Sigma-Aldrich (St. Louis, MO, USA); host or cells: bovine milk
Nature of the experiment: In vitro XOD inhibition assay (uric acid formation at 295 nm). Format: biochemical. The note with it: for IC50 XOD activity / IC50: mean of three experiments.
Experimental: Inhibition of XOD activity was analyzed based on decreases in uric acid formation at 295 nm at 37°C using a spectrophotometer. […] Test samples were dissolved in DMSO (final concentration 0.1%, v/v) to final concentrations appropriate for the tested dose. […] All the experiments were performed in triplicate, and IC50 values are expressed as the means of three experiments [26].

Experiment [2] has as its system normal rats. Nature of the experiment: Serum uric acid levels in normal rats. Format: in vivo, rat. The note with it: 10 mg/kg oral, Figure 1(b). The method, then:
The rats were randomized into the following 9 groups (n = 8/group) based on body weight: (1) a normal control group (NC), (2) a CF group, (3) a CB group, (4) a CC11 group, (5) a CC12 group, (6) a CC14 group, (7) a CC21 group, (8) a CC41 group, and (9) an AP group. The rats of NC group were treated with vehicle (0.5% CMC solution). CF, CB, and various CC mixtures in 0.5% CMC solution were given to the rats via oral gavage at a dose of 200 mg/kg. Allopurinol in 0.5% CMC solution was administered at a dose of 10 mg/kg.
(§1) Urine samples were collected during 2 h after the final administration experiment and centrifuged (3000g, 10 min, 4°C) to remove particulate contaminants, and the supernatants were stored at −80°C until analysis. Blood samples were collected via cardiac puncture under anesthesia 2 h after urine collection following PO injection. […] Serum and urine uric acid (SUA and UUA, resp.) levels were determined by an enzymatic-colorimetric method using commercial assay kits (Biovision, USA) according to manufacturer's protocols. Serum and urine creatinine levels were analyzed by an autoanalyzer (Hitachi-7020, Hitachi Medical, Japan). Fractional excretion of uric acid (FEUA) was calculated by the formula FEUA (%) = (urine uric acid levels [mg/dl] × Serum Creatinine levels [mg/dl])/(serum uric acid levels [mg/dl] × urine creatinine levels [mg/dl]) × 100.

Experiment [3] relates to PO-induced hyperuricemic rats. Nature of the experiment: Urine uric acid, FEUA and creatinine in PO-induced hyperuricemic rats. Format: in vivo, rat. The note with it: 10 mg/kg oral. Here is the method:
(§2) For hyperuricemia induction, the uricase inhibitor potassium oxonate (PO) was administered as previously described, with slight modifications. For the experiment regarding the effects of CF, CB, and various CC mixtures, the rats were divided into the following 10 groups (n = 8/group) based on body weight: (1) a normal control group (NC), (2) a hyperuricemia control group (PO), (3) a PO + CF group, (4) a PO + CB group, (5) a PO + CC11 group, (6) a PO + CC12 group, (7) a PO + CC14 group, (8) a PO + CC21 group, (9) a PO + CC41 group, and (10) a PO + AP group. […]
as §1, with “analysis.” for “analysis. Blood samples were collected via cardiac puncture under anesthesia 2 h after urine collection following PO injection.”

Experiment [4] deals with PO-induced hyperuricemic rats. Nature of the experiment: Serum uric acid levels in PO-induced hyperuricemic rats. As to conditions: 10 mg/kg oral. The experiment is classed as in vivo, rat. Here is the method:
as §2
as §1, with “analysis.” for “analysis. Blood samples were collected via cardiac puncture under anesthesia 2 h after urine collection following PO injection.”

Experiment [5] relates to PO-induced hyperuricemic mice. On the set-up: method as in Wang et al. [23] and Meng et al. [32]. As to conditions: ref Wang et al. [23] and Meng et al. [32]; cited from earlier work.
The mark [6] stands for this setting: read-out: % inhibition of XOD activity.

Values after ≈ are worked out from the molar mass of the structure shown.

T1 sequence (P80457 whole entry): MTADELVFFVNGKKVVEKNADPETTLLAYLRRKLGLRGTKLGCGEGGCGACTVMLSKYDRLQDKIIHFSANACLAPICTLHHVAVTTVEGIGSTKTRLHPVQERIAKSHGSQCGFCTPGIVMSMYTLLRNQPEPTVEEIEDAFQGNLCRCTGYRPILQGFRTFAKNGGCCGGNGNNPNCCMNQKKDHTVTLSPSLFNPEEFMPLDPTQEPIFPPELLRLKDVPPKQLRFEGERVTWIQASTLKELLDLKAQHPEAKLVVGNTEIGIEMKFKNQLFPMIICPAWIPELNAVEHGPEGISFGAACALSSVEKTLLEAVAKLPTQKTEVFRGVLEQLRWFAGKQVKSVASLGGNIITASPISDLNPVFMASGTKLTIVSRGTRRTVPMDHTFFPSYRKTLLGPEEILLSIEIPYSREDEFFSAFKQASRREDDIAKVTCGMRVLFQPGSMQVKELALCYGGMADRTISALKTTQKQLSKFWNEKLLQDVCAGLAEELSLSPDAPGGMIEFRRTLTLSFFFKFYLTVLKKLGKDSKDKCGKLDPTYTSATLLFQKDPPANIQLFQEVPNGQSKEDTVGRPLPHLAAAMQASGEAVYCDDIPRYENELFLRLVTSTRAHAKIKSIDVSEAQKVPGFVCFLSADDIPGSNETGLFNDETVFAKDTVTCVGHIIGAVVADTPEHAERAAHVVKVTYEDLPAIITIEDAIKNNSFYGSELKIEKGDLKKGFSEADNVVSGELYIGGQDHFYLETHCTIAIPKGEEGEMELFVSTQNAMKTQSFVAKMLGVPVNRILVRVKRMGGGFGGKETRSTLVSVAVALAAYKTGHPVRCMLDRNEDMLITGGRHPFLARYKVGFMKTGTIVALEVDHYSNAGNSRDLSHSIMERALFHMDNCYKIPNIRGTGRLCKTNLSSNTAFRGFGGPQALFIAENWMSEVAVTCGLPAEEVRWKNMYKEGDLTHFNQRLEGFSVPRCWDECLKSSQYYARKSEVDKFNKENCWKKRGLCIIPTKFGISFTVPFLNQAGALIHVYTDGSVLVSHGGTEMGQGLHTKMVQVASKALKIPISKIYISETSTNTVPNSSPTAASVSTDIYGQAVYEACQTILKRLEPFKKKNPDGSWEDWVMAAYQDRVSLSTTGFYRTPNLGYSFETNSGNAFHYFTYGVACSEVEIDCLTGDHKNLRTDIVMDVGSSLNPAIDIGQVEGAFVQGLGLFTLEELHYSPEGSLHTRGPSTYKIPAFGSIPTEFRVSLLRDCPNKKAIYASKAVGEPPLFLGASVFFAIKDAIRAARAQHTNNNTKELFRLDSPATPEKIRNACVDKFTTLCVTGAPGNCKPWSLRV

Consider `O=C(/C=C/c1ccc(O)c(O)c1)O[C@@H]1[C@H](O)C[C@@](O)(C(=O)O)C[C@H]1OC(=O)/C=C/c1ccc(O)c(O)c1` (stereo in doubt) [3,4-Dicaffeoylquinic acid, 3,4-dicaffeoylquinic acid], for which the “% inhibition of XOD activity” value in experiment [1] (62.5 μg/ml) came to 21.0 ± 1.5%; in experiment [1] (125 μg/ml), 104.6 ± 2.6%; in experiment [1] (250 μg/ml), 85.0 ± 1.2%. Besides, the “IC50 XOD activity” value in experiment [1] came out at 79.7 µg/mL (≈ 154 µM).
The term inhibition denotes the relative decrease from the control value, in per cent. On to `Oc1ncnc2[nH]ncc12` [Allopurinol, allopurinol], for which, in experiment [2], the “Decrease of serum uric acid levels compared with the NC group” value was found to be 70%. Further, in experiment [1] (setting [6]), the inhibition at 6.25 µg/mL came to 51.7 ± 0.7%, the inhibition at 12.5 µg/mL amounted to 71.7 ± 0.1% and the inhibition at 25 µg/mL came to 80.3 ± 0.3%. In addition, in experiment [3] (Figure 2(b)), the “Effect on urine uric acid levels” value is given as “did not affect”. Moreover, in experiment [3] (Figure 2(c), p < 0.05), the “Effect on FEUA” value was “increased the FEUA”. In experiment [4] (PO-induced hyperuricemic rats, Figure 1(a)), the “Reduction of serum uric acid levels compared with the PO group” value worked out at 75%. Moreover, the “Reduction of serum uric acid levels” value in experiment [4] (dose-dependence experiment, Figure 2(a)) is on record as 66%.
The IC50 is the concentration that inhibits the measured activity by half. Lower therefore signals greater potency. Consider `O=C(/C=C/c1ccc(O)c(O)c1)O[C@@H]1C[C@](O)(C(=O)O)C[C@@H](O)[C@H]1O` [Chlorogenic acid], for which, in experiment [1] (62.5 μg/ml), the inhibition at 62.5 µg/mL was determined as 24 ± 1.7%. Moreover, the inhibition at 125 µg/mL in experiment [1] (125 μg/ml) is 63.6 ± 1.5%. For the same compound, the inhibition at 250 µg/mL in experiment [1] (250 μg/ml) turned out to be 107.3 ± 0.6%. In experiment [1], this compound gave an IC50 of 293 µM. Also, the “Effect on serum uric acid levels by inhibiting XOD activity” value in experiment [5] is listed as “significantly decreased”.
Take `O=C/C=C/c1ccccc1` [Cinnamaldehyde, cinnamaldehyde]: the inhibition at 62.5 µg/mL in experiment [1] (62.5 μg/ml) is 101 ± 3.2%. For the same compound, the inhibition at 125 µg/mL in experiment [1] (125 μg/ml) came out at 126 ± 5.6%. Further, in experiment [1] (250 μg/ml), the inhibition at 250 µg/mL worked out at 119 ± 35.1%. It took 331 µM to reach half-maximal inhibition in experiment [1] (IC50). Also, the “Effect on serum uric acid levels by inhibiting XOD activity” value in experiment [5] is listed as “significantly decreased”.
Take `O=c1ccc2ccccc2o1` [Coumarin, coumarin]: the inhibition at 62.5 µg/mL in experiment [1] (62.5 μg/ml) is 22.8 ± 0.1%. In experiment [1] (125 μg/ml), the inhibition at 125 µg/mL was 75.1 ± 1%. Moreover, in experiment [1] (250 μg/ml), the inhibition at 250 µg/mL was determined as 103.9 ± 0.7%. Also, it took 651 µM to reach half-maximal inhibition in experiment [1] (IC50).
As to `COc1ccccc1C=CC=O` [o-Methoxycinnamaldehyde, o-methoxycinnamaldehyde], the “% inhibition of XOD activity” value is reported as 104.7 ± 0.2% in experiment [1] (62.5 μg/ml), 101.2 ± 0.2% in experiment [1] (125 μg/ml) and 100.0 ± 0.4% in experiment [1] (250 μg/ml). Besides, the “IC50 XOD activity” value in experiment [1] worked out at 25.7 µg/mL (≈ 158 µM).
In the case of `O=C(O)/C=C/c1ccccc1` [trans-Cinnamic acid, trans-cinnamic acid], the “% inhibition of XOD activity” value in experiment [1] (62.5 μg/ml) stood at 54.3 ± 0.7%; in experiment [1] (125 μg/ml) it was 96.7 ± 1.9%; in experiment [1] (250 μg/ml), 114.9 ± 0.4%. Besides, in experiment [1], the “IC50 XOD activity” value was determined as 58.8 µg/mL (≈ 397 µM).

The values are drawn from PMC5523311, “Synergistic Uric Acid-Lowering Effects of the Combination of Chrysanthemum indicum Linne Flower and Cinnamomum cassia (L.) J. Persl Bark Extracts” (Evidence-based Complementary and Alternative Medicine : eCAM, 2017).
